Laboratory results taken from patent publication US20260130845A1, “KETAMINE NASAL SPRAY FORMULATION AND METHODS OF USE” (INESKET LLC, priority 2024, published 2026).

Key:
[1] = Open-label absolute bioavailability and pharmacokinetic study of intranasal ketamine in healthy volunteers; type: in vivo, human; settings: hydro-alcoholic composition, minimum-maximum
Protocol: This was an open-label study in 25 healthy volunteers. Subjects received single doses of ketamine by intravenous (IV) injection (20 mg), intramuscular (IM) injection (20 mg), or intranasal (IN) administration (20 mg, 40 mg and 80 mg).
Blood samples for the measurement of plasma concentrations of (R)- and (S)-ketamine and (R)- and (S)-norketamine were collected pre-dose and at 0.033, 0.083, 0.167, 0.25, 0.333, 0.5, 0.75, 1, 1.25, 2, 2.5, 3, 4, 6, 8, 12, 16, and 24 hours post-dose for each study period.
All estimates for the parent and metabolite were consistent within each formulation or dose for the racemate, (R)-, and (S)-enantiomers. After IN administration, the estimates were slightly higher for the metabolite than the parent.

[2] = acidic pH near 4.5
From the text: A Buffer may be used to control the pH of the nasal spray solution at, or near 4.5. […] Also, the local pH value inside the nasal cavity directly influences the rate and extent of drug absorption. […] Additionally, maintaining pH at or above 4.0 helps to reduce local nasal tract irritation. The buffer is optional.

SMILES | AUC(0-1 hr) ([1]; dose 10 mg) | AUC(0-4 hr) ([1]; dose 10 mg) | Tmax ([1]; dose 10 mg) [min] | AUC(0-1 hr) ([1]; dose 20 mg) | AUC(0-4 hr) ([1]; dose 20 mg) | Tmax ([1]; dose 20 mg) [min] | AUC(0-1 hr) ([1]; dose 40 mg) | AUC(0-4 hr) ([1]; dose 40 mg) | Tmax ([1]; dose 40 mg) [min] | stability of solutions [2]
CN[C@]1(c2ccccc2Cl)CCCCC1=O [(S)-Ketamine] | 12.8-55.8 hr′ ng/mL | 26.4-90.4 hr′ ng/mL | 5 to 20 | 30.9-96.7 hr′ ng/mL | 66.9-181 hr′ ng/mL | 10 to 30 |  |  |  | 
CNC1(c2ccccc2Cl)CCCCC1=O (racemic) [(RS)-Ketamine, 2-(2-chlorophenyl)-2-(methylamino)-cyclohexanone] |  |  |  | 28.7-127 hr′ ng/mL | 60.0-209 hr′ ng/mL | 4.98 to 30 | 71.4-225 hr′ ng/mL | 160-433 hr′ ng/mL | 10 to 30 | 
CNC1(c2ccccc2Cl)CCCCC1=O.Cl (centres unmarked) [Es/ketamine HCl] |  |  |  |  |  |  |  |  |  | better stability
CN[C@@]1(c2ccccc2Cl)CCCCC1=O [(R)-Ketamine] | 15.9-70.8 hr′ ng/mL | 33.6-118 hr′ ng/mL |  | 40.5-129 hr′ ng/mL | 93.0-251 hr′ ng/mL |  |  |  |  | 
